# Test results published in US20170143674A1, “Use of Glutaryl Histamine for the Treatment of Respiratory Tract Diseases” (LTD "VALENTA-INTELLEKT", priority 2011, published 2017).
# “Also recorded” adds a separate entry of the source.
# Columns and labels:
# [1] = tested on: Staphylococcus aureus (mouse-adapted strain 10); assay: animal or person; assay type: in vivo, mice; conditions: for Mortality rate (%) / Survival rate (%): tenth day
# Experimental: The tested medicament was glutaryl histamine in doses of 15, 30 and 45 mg/kg. Solutions of the tested medicament for oral administration were prepared ex tempore. Ampicillin (in intravenous administration) was used as a therapeutic preparation since this substance was the most experimentally studied antibiotic approved in clinical practice many years ago.
# Staphylococcus aureus (mouse-adapted strain 10) was used as an infectious agent. Mice were infected intravenously.
# Firstly, there was determined a lethal dose (LD100) of staphylococcus when intravenously administered to this line of mice with a certain weight. Fatal cases among mice were registered every day for ten days. The lethal dose was 3×10^8 CFU/mouse. […] For this purpose, mice were housed into cages (10 animals per cage) and infected with a lethal dose of staphylococcus. One hour later, each mouse was intravenously administered ampicillin in doses of 10, 20, 30, 40, and 50 mg/kg. A group of mice infected with a lethal dose of staphylococcus without the treatment was considered as a control group. Fatal cases among mice were registered every day for ten days.
# The next step of the experiment was to study an effect of combined administration of glutaryl histamine with ampicillin on a model of staphylococcal sepsis in mice.
# In the experiment, mice were housed in following groups (10 animals per cage):
# Glutaryl histamine was administered orally in the corresponding doses to mice of groups 3, 4, 5, 6, 7, and 8 for 5 days. Five day after, all groups of mice were intravenously administered 0.2 ml of Staphylococcus aureus in the lethal dose. One hour after infection, mice of groups 2, 6, 7 and 8 were […] administered 0.2 ml of ampicillin in a dose of 20 mg/kg. After infection and administration of ampicillin, mice of groups 3-8 were administered glutaryl histamine for additional 5 days. During the experiment, the animals were observed every day, and fatal cases were registered.
# lacunar tonsillitis = assay: open randomized comparative trial in lacunar tonsillitis; assay type: in vivo, human; conditions: 90 mg per day for 5 days with standard therapy
# Experimental: The effectiveness of glutaryl histamine for the treatment of lacunar tonsillitis was studied in an open randomized and comparative trial.
# The trial included 60 patients which were under medical supervision. When admitted to hospital, patients were randomized into two groups by a random sampling technique. The patients of the first group (30 subjects) received glutaryl histamine in an amount of 90 mg (1 pill) per day for 5 days (450 mg course dose) and standard therapy comprising antibacterial medicaments (penicillin 1 g I.M. 4 times a day or cefasoline 1 g I.M. 3 times a day for 7 days) and nosotropic agents. The patients of the second group (30 subjects) received only standard therapy.
# Laboratory analysis included: general blood test, determination of C-reactive protein, and microbiological analysis of tonsil smears. Laboratory data were analyzed on day 6 of the treatment. […]
# Statistical treatment of the obtained results. Values of quantitative variables were expressed as M±SE, wherein M is a mean value, and SE is a standard error of the mean. […]
compound,measurement,setting,value
CC1(C)S[C@@H]2[C@H](NC(=O)[C@H](N)c3ccccc3)C(=O)N2[C@H]1C(=O)O [ampicillin],ED50,"[1]; Staphylococcus aureus, iv, read-out: ED50 (50% effective dose)",17.3 mg/kg
same,Mortality rate (%),[1]; ampicillin 20 mg/kg,50%
same,Survival rate (%),[1]; ampicillin 20 mg/kg,50%
same,died/survived animals,"[1]; day 1, ampicillin 20 mg/kg",0/10
same,died/survived animals,"[1]; day 2, ampicillin 20 mg/kg",0/10
same,died/survived animals,"[1]; day 3, ampicillin 20 mg/kg",0/10
same,died/survived animals,"[1]; day 4, ampicillin 20 mg/kg",1/9
same,died/survived animals,"[1]; day 5, ampicillin 20 mg/kg",2/8
same,died/survived animals,"[1]; day 6, ampicillin 20 mg/kg",3/7
same,died/survived animals,"[1]; day 7, ampicillin 20 mg/kg",4/6
same,died/survived animals,"[1]; day 8, ampicillin 20 mg/kg",4/6
same,died/survived animals,"[1]; day 9, ampicillin 20 mg/kg",5/5
same,died/survived animals,"[1]; day 10, ampicillin 20 mg/kg",5/5
O=C(O)CCCC(=O)NCCc1c[nH]cn1 [glutaryl histamine],tolerability / undesirable symptoms,lacunar tonsillitis,well tolerated; also recorded: none of the cases had undesirable symptoms
same,died/survived animals,"[1]; day 1, glutaryl histamine 15 mg/kg",0/10
same,died/survived animals,"[1]; day 1, glutaryl histamine 30 mg/kg",0/10
same,died/survived animals,"[1]; day 1, glutaryl histamine 45 mg/kg",0/10
same,died/survived animals,"[1]; day 2, glutaryl histamine 15 mg/kg",0/10
same,died/survived animals,"[1]; day 2, glutaryl histamine 30 mg/kg",0/10
same,died/survived animals,"[1]; day 2, glutaryl histamine 45 mg/kg",0/10
same,died/survived animals,"[1]; day 3, glutaryl histamine 15 mg/kg",0/10
same,died/survived animals,"[1]; day 3, glutaryl histamine 30 mg/kg",0/10
same,died/survived animals,"[1]; day 3, glutaryl histamine 45 mg/kg",1/9
same,died/survived animals,"[1]; day 4, glutaryl histamine 15 mg/kg",1/9
same,died/survived animals,"[1]; day 4, glutaryl histamine 30 mg/kg",1/9
same,died/survived animals,"[1]; day 4, glutaryl histamine 45 mg/kg",1/9
same,died/survived animals,"[1]; day 5, glutaryl histamine 15 mg/kg",2/8
same,died/survived animals,"[1]; day 5, glutaryl histamine 30 mg/kg",2/8
same,died/survived animals,"[1]; day 5, glutaryl histamine 45 mg/kg",3/7
same,died/survived animals,"[1]; day 6, glutaryl histamine 15 mg/kg",4/6
same,died/survived animals,"[1]; day 6, glutaryl histamine 30 mg/kg",3/7
same,died/survived animals,"[1]; day 6, glutaryl histamine 45 mg/kg",4/6
same,died/survived animals,"[1]; day 7, glutaryl histamine 15 mg/kg",5/5
same,died/survived animals,"[1]; day 7, glutaryl histamine 30 mg/kg",4/6
same,died/survived animals,"[1]; day 7, glutaryl histamine 45 mg/kg",5/5
same,died/survived animals,"[1]; day 8, glutaryl histamine 15 mg/kg",6/4
same,died/survived animals,"[1]; day 8, glutaryl histamine 30 mg/kg",6/4
same,died/survived animals,"[1]; day 8, glutaryl histamine 45 mg/kg",6/4
same,died/survived animals,"[1]; day 9, glutaryl histamine 15 mg/kg",6/4
same,died/survived animals,"[1]; day 9, glutaryl histamine 30 mg/kg",7/3
same,died/survived animals,"[1]; day 9, glutaryl histamine 45 mg/kg",7/3
same,died/survived animals,"[1]; day 10, glutaryl histamine 15 mg/kg",7/3
same,died/survived animals,"[1]; day 10, glutaryl histamine 30 mg/kg",7/3
same,died/survived animals,"[1]; day 10, glutaryl histamine 45 mg/kg",8/2
same,Mortality rate (%),[1]; glutaryl histamine 15 mg/kg,70%
same,Survival rate (%),[1]; glutaryl histamine 15 mg/kg,30%
same,Mortality rate (%),[1]; glutaryl histamine 30 mg/kg,70%
same,Survival rate (%),[1]; glutaryl histamine 30 mg/kg,30%
same,Mortality rate (%),[1]; glutaryl histamine 45 mg/kg,80%
same,Survival rate (%),[1]; glutaryl histamine 45 mg/kg,20%
